Laboratory results as given in article PMC9666501, “Screening for effective cell-penetrating peptides with minimal impact on epithelial cells and gut commensals in vitro” (Frontiers in Pharmacology, 2022).
Entries after “also recorded” stand apart in the source; their conditions may differ.

Experiments:
[1] = system: Escherichia coli Nissle 1917 (Mutaflor); assay: Broth microdilution antimicrobial assay; assay type: cell-based; conditions: microbroth dilution in mGAM, aerobic with shaking, 37 °C, 24 h, OD600, CPP 0.01-100 µM
Procedure: (§1) Gut commensal microbial strains used in this study (Table 2) were purchased from […] (ATCC) and DSMZ, Germany. The growth and screening experiments were performed in modified Gifu Anaerobic Medium (mGAM) (HyServe GmbH and Co.) as all the strains could grow well in this media. mGAM was pre-reduced for a minimum of 1 day in the anaerobic chamber (Coy laboratory products Inc.) before use.
(§2) The antimicrobial effects of CPPs were determined by performing microbroth dilution method. The overnight cultures of the strains were diluted 100-fold in mGAM broth and 100 µL of the diluted cultured were distributed in the 96-well microplate. Next, 100 µL of CPPs in their respective concentrations were added to respective wells. Plates were incubated aerobically (Escherichia coli Nissle, Escherichia coli K12, and Saccharomyces boulardii) or anaerobically (rest of the strains) at 37 °C for 24 h with or without shaking, respectively. Reading of each plate was performed by measuring the optical density (OD) at 600 nm in a microplate reader (Synergy™ H1 BioTek). The final absorbance values were normalized and represented as values between 0 and 1 as a heat map, where 0 being full inhibition and 1 being no inhibition. The MIC was determined as the minimum concentration of the CPPs at which no significant growth of the strain was observed as compared to medium only (blank).

[2] = system: Lactobacillus gasseri DSM 20077; assay: Broth microdilution antimicrobial assay; assay type: cell-based; conditions: microbroth dilution in mGAM, anaerobic, 37 °C, 24 h, OD600, CPP 0.01-100 µM
Procedure: as §1, §2

[3] = system: Latilactobacillus sakei ATCC 15521; assay: Broth microdilution antimicrobial assay; assay type: cell-based; conditions: microbroth dilution in mGAM, anaerobic, 37 °C, 24 h, OD600, CPP 0.01-100 µM
Procedure: as §1, §2

[4] = system: Bifidobacterium adolescentis DSM 20083; assay: Broth microdilution antimicrobial assay; assay type: cell-based; conditions: microbroth dilution in mGAM, anaerobic, 37 °C, 24 h, OD600, CPP 0.01-100 µM
Procedure: as §1, §2

[5] = system: Bacteroides thetaiotaomicron DSM 2079; assay: Broth microdilution antimicrobial assay; assay type: cell-based; conditions: B. thetaiotaomicron; microbroth dilution in mGAM, anaerobic, 37 °C, 24 h, OD600; CPP 0.01-100 µM
Procedure: as §1, §2

[6] = system: Escherichia coli K12 MG 1655; assay: Broth microdilution antimicrobial assay; assay type: cell-based; conditions: microbroth dilution in mGAM, aerobic with shaking, 37 °C, 24 h, OD600, CPP 0.01-100 µM
Procedure: as §1, §2

[7] = system: Clostridium bolteae DSM 29485; assay: Broth microdilution antimicrobial assay; assay type: cell-based; conditions: microbroth dilution in mGAM, anaerobic, 37 °C, 24 h, OD600, CPP 0.01-100 µM
Procedure: as §1, §2

[8] = system: Bacteroides vulgatus ATCC 8482; assay: Broth microdilution antimicrobial assay; assay type: cell-based; conditions: B. vulgatus; microbroth dilution in mGAM, anaerobic, 37 °C, 24 h, OD600; CPP 0.01-100 µM
Procedure: as §1, §2

[9] = system: Bifidobacterium longum ATCC 15697; assay: Broth microdilution antimicrobial assay; assay type: cell-based; conditions: microbroth dilution in mGAM, anaerobic, 37 °C, 24 h, OD600, CPP 0.01-100 µM
Procedure: as §1, §2

[10] = system: Caco-2 monolayers; assay: FITC-dextran translocation assay; assay type: cell-based, human; conditions: Caco-2 monolayers 21 days; each CPP at a concentration without cytotoxicity, apical, 1 h, 37 °C, pH 7.4; then 1 mg/ml FITC-dextran 4 for 30 min; fluorescence; n = 3
Procedure: For Fluorescein Isothiocyanate (FITC)-Dextran permeability experiments, Caco-2 monolayers differentiated for 21 days were transferred to 12-well plates containing 1.5 ml phenol red free DMEM media (pH 7.4) in the basal compartments. For the treatment, medium in the apical compartment was replaced by 0.5 ml phenol red free DMEM medium containing different concentrations of CPPs, and the plates were incubated at 37 °C for 1 h. Post treatment, inserts were transferred to a new 12-well plate containing 1.5 ml fresh phenol red free DMEM and the apical medium was replaced by medium containing 1 mg/ml FITC-dextran 4 (Sigma-Aldrich). The incubation with the permeability marker lasted for 30 min. Samples were collected from the basolateral compartments post incubation and fluorescence was measured using multi-well fluorescent plate reader (Synergy; excitation wavelength: 490 nm, emission wavelength: 520 nm). The concentration of FITC-dextran in the samples was calculated by comparing the relative fluorescence values to the FITC-dextran standard curve. The apparent permeability coefficient (Papp, cm/s) was calculated according to Eq. 1. Papp=dQ/dt×1/(A×C0), (1) Where dQ/dt is the drug permeation rate (μg/s); a is the surface area of the inserts (cell monolayer) (cm^2); and C0 is the initial concentration at the apical side (μg/ml).

[11] = system: Caco-2 cells; assay: AlamarBlue cell viability assay; assay type: cell-based, human; conditions: CPP 5 µM, 1 h treatment (legend; method says 2 h), 37°C, fluorescence 560/590 nm, n = 3
Procedure: Caco-2 cells were seeded (6 × 10^3 cells/well) in Corning™ Costar™ 96-Well, Cell Culture-Treated, Flat-Bottom Microplate and grown at 37°C with 5% CO2 until reaching confluence. For alamarBlue cell viability staining, cells were exposed to treatments (DMEM + AlamarBlue (10 µL) + CPPs) at different concentrations and incubated for 2 h at 37°C with 5% CO2. Fluorescence was measured with microplate reader Synergy™ H1 BioTek; (excitation wavelength: 560 nm, emission wavelength: 590 nm) and a curve of Relative Fluorescence Units (RFU) against different concentrations of CPPs was plotted.

[12] = system: Caco-2 cells; assay type: cell-based; conditions: CPP 1, 5, 10, 50, 100 µM in DMEM, 1 h treatment (legend; method says 2 h), 37°C, Incucyte imaging, n = 2
Procedure: Caco-2 cells were seeded (6 × 10^3 cells/well) in Corning™ Costar™ 96-Well, Cell Culture-Treated, Flat-Bottom Microplate and grown at 37°C with 5% CO2 until reaching confluence. […] Fluorescence was measured with microplate reader Synergy™ H1 BioTek; (excitation wavelength: 560 nm, emission wavelength: 590 nm) and a curve of Relative Fluorescence Units (RFU) against different concentrations of CPPs was plotted.
[…] The cells were then imaged using the Incucyte® Live-Cell analysis instrument. Cytotox Red dye dilution: The dye was diluted to a stock concentration of 100 µM in PBS. This was further diluted in full media to yield a final concentration of 250 nM before adding to the cells.

[13] = system: 10 commensal gut microbial strains; assay: Broth microdilution antimicrobial assay, panel summary; assay type: cell-based; conditions: range over the strains that were totally inhibited; mGAM, 37 °C, 24 h
Procedure: as §1, §2

[14] = system: Caco-2 monolayers; conditions: CPP 3 µM; ref Bocsik et al in 2019; cited from earlier work
Procedure: In the present work we systematically screened for effective CPPs that promote intestinal permeation through paracellular route and have negligible or no harmful effects against human epithelial cells and gut microbial strains. […] The results from the cytotoxicity and cell viability assays were in concordance except for RRL helix and PN159 at 5 µM. This minor difference most likely has to do with the sensitivity of the assay. The reducing capacity of the cells (as measured by AlamarBlue) is not the same as membrane integrity (as measured by Cytotoxic Red).

CC(C)C[C@H](NC(=O)[C@H](C)NC(=O)[C@H](CCCCN)NC(=O)[C@H](CC(C)C)NC(=O)[C@H](C)NC(=O)[C@H](CC(C)C)NC(=O)[C@H](CCCCN)NC(=O)[C@H](CC(C)C)NC(=O)[C@H](C)NC(=O)[C@H](CC(C)C)NC(=O)[C@@H](N)CCCCN)C(=O)N[C@@H](CCCCN)C(=O)N[C@@H](C)C(=O)N[C@@H](C)C(=O)N[C@@H](CC(C)C)C(=O)N[C@@H](CCCCN)C(=O)N[C@@H](CC(C)C)C(=O)N[C@@H](C)C(N)=O [PN159]
Minimum inhibitory concentration (MIC) [1]: 50 µM
Minimum inhibitory concentration (MIC) [2]: 5 µM
Minimum inhibitory concentration (MIC) [3]: 1 µM
Minimum inhibitory concentration (MIC) [4]: 10 µM
Minimum inhibitory concentration (MIC) [5]: 10 µM
Minimum inhibitory concentration (MIC) [6]: 5 µM
Minimum inhibitory concentration (MIC) [7]: 1 µM
Minimum inhibitory concentration (MIC) [8]: 10 µM
Minimum inhibitory concentration (MIC) [9]: 1 µM
Paracellular permeability of FITC-dextran (Papp A-B) [10]: highest paracellular permeability
Cell viability (AlamarBlue, % live cells vs control) [11]: no significant toxic effect; also recorded: no significant effect on cell viability
Cytotoxicity (Cytotox Red dye staining, dead cells) [12]: toxic at 5 µM; also recorded: Toxicity from 5 μM
MICs over the totally inhibited strains of the panel [13]: 1 to 50 µM
Paracellular permeability of Caco-2 monolayers via tight junction modulation [14]: significantly improve paracellular permeability of Caco-2 monolayers
